In patent US10183950B2, “Thienopyrimidine inhibitors of atypical protein kinase C” (Cancer Research Technology Limited, priority 2011, dated 2019):
pIC50: −log10 of the molar value.

Target: T1, full-length human PKCι (Homo sapiens, UniProt P41743)
T1 construct: Recombinant, full-length human PKCι expressed in Sf21 insect cells is also commercially available; purchased; host or cells: Sf21 insect cells
T1 sequence (P41743 1-596): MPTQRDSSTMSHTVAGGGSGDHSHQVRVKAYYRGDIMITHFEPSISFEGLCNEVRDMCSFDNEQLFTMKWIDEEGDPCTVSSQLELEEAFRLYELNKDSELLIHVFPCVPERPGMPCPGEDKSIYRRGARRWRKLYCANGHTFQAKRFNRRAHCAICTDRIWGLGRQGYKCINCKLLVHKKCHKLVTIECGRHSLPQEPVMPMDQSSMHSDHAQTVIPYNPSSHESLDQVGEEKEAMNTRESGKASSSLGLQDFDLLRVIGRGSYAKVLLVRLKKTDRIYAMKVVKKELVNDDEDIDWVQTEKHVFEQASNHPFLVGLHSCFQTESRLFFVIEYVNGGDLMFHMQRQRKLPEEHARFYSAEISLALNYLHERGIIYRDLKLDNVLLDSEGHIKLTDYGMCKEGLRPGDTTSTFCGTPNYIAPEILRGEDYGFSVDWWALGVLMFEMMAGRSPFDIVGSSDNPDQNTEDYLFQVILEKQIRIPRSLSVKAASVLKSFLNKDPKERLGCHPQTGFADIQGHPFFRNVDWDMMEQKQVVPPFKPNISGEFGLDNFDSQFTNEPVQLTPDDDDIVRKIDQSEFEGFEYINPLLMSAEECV
Assay: PKCι IC50 IMAP fluorescence polarisation assay, full-length enzyme
Type: biochemical
Conditions: full length PKCi at 15 μM ATP; read-out: IC50 in IMAP assay against full length PKCi

Structure (SMILES)	pIC50
CC(C)(O)C#Cc1c(C(C)(C)C)sc2c(NC[C@@H](N)Cc3ccccc3)nc(-c3ccncc3)nc12 [compound 505, 4-[4-((S)-2-Amino-3-phenyl-propylamino)-6-tert-butyl-2-pyridin-4-yl-thieno[3,2-d]pyrimidin-7-yl]-2-methyl-but-3-yn-2-ol]	5.00 to 6.00
C[C@H](O)C#Cc1csc2c(NC[C@@H](N)Cc3ccccc3)nc(-c3ccncc3F)nc12 [compound 508, (S)-4-[4-((S)-2-Amino-3-phenyl-propylamino)-2-(3-fluoro-pyridin-4-yl)-thieno[3,2-d]pyrimidin-7-yl]-but-3-yn-2-ol]	6.00 to 7.00
CC(C)(O)C#Cc1csc2c(NC[C@@H](N)Cc3ccccc3)nc(-c3ccncc3F)nc12 [compound 509, 4-[4-((S)-2-Amino-3-phenyl-propylamino)-2-(3-fluoro-pyridin-4-yl)-thieno[3,2-d]pyrimidin-7-yl]-2-methyl-but-3-yn-2-ol]	6.00 to 7.00
CC(C)(C)C#Cc1csc2c(NC[C@@H](N)Cc3ccccc3)nc(-c3ccncc3)nc12 [compound 511, (S)-N*1*-[7-(3,3-Dimethyl-but-1-ynyl)-2-pyridin-4-yl-thieno[3,2-d]pyrimidin-4-yl]-3-phenyl-propane-1,2-diamine]	5.00 to 6.00
CC(C)(O)C#Cc1csc2c(N[C@@H]3CCNC3)nc(-c3ccncc3)nc12 [compound 514, 2-Methyl-4-[2-pyridin-4-yl-4-((R)-pyrrolidin-3-ylamino)-thieno[3,2-d]pyrimidin-7-yl]-but-3-yn-2-ol]	6.00 to 7.00
CC(C)(N)C#Cc1csc2c(NC[C@@H](N)Cc3ccccc3)nc(-c3ccncc3)nc12 [compound 516, (S)-N*1*-[7-(3-Amino-3-methyl-but-1-ynyl)-2-pyridin-4-yl-thieno[3,2-d]pyrimidin-4-yl]-3-phenyl-propane-1,2-diamine]	5.00 to 6.00
CC(C)C#Cc1csc2c(NC[C@@H](N)Cc3ccccc3)nc(-c3ccncc3)nc12 [compound 518, (S)-N*1*-[7-(3-Methyl-but-1-ynyl)-2-pyridin-4-yl-thieno[3,2-d]pyrimidin-4-yl]-3-phenyl-propane-1,2-diamine]	6.00 to 7.00
CC(C)(O)C#Cc1csc2c(N[C@@H]3CCNC3)nc(-c3ccncc3F)nc12 [compound 519, 4-[2-(3-Fluoro-pyridin-4-yl)-4-((R)-pyrrolidin-3-ylamino)-thieno[3,2-d]pyrimidin-7-yl]-2-methyl-but-3-yn-2-ol]	5.00 to 6.00
COC(C)(C)C#Cc1csc2c(NC[C@@H](N)Cc3ccccc3)nc(-c3ccncc3)nc12 [compound 520, (S)-N*1*-[7-(3-Methoxy-3-methyl-but-1-ynyl)-2-pyridin-4-yl-thieno[3,2-d]pyrimidin-4-yl]-3-phenyl-propane-1,2-diamine]	6.00 to 7.00
CCC[C@@H](C)[C@H](O)C#Cc1csc2c(NC[C@@H](N)Cc3ccccc3)nc(-c3ccncc3)nc12 [compound 522, (S)-1-[4-((S)-2-Amino-3-phenyl-propylamino)-2-pyridin-4-yl-thieno[3,2-d]pyrimidin-7-yl]-4-methyl-hept-1-yn-3-ol]	5.00 to 6.00
CC[C@](C)(O)C#Cc1csc2c(NC[C@@H](N)Cc3ccccc3)nc(-c3ccncc3)nc12 [compound 523, (S)-1-[4-((S)-2-Amino-3-phenyl-propylamino)-2-pyridin-4-yl-thieno[3,2-d]pyrimidin-7-yl]-3-methyl-pent-1-yn-3-ol]	6.00 to 7.00
CC(C)[C@](C)(O)C#Cc1csc2c(NC[C@@H](N)Cc3ccccc3)nc(-c3ccncc3)nc12 [compound 524, (S)-1-[4-((S)-2-Amino-3-phenyl-propylamino)-2-pyridin-4-yl-thieno[3,2-d]pyrimidin-7-yl]-3,4-dimethyl-pent-1-yn-3-ol]	5.00 to 6.00
CCC(O)(C#Cc1csc2c(NC[C@@H](N)Cc3ccccc3)nc(-c3ccncc3)nc12)CC [compound 525, 1-[4-(2-Amino-3-phenyl-propylamino)-2-pyridin-4-yl-thieno[3,2-d]pyrimidin-7-yl]-3-ethyl-pent-1-yn-3-ol]	5.00 to 6.00
CCC[C@H](O)C#Cc1csc2c(NC[C@@H](N)Cc3ccccc3)nc(-c3ccncc3)nc12 [compound 526, (S)-1-[4-((S)-2-Amino-3-phenyl-propylamino)-2-pyridin-4-yl-thieno[3,2-d]pyrimidin-7-yl]-hex-1-yn-3-ol]	6.00 to 7.00
C[C@H](O)C#Cc1csc2c(N[C@@H]3CCNC3)nc(-c3ccncc3F)nc12 [compound 527, (S)-4-[2-(3-Fluoro-pyridin-4-yl)-4-((R)-pyrrolidin-3-ylamino)-thieno[3,2-d]pyrimidin-7-yl]-but-3-yn-2-ol]	4.40 to 5.00
N[C@H](CNc1nc(-c2ccncc2)nc2c(C#Cc3ccccn3)csc12)Cc1ccccc1 [compound 529, (S)-3-Phenyl-N*1*-(2-pyridin-4-yl-7-pyridin-2-ylethynyl-thieno[3,2-d]pyrimidin-4-yl)-propane-1,2-diamine]	6.00 to 7.00
N[C@H](CNc1nc(-c2ccncc2)nc2c(C#Cc3ccccc3F)csc12)Cc1ccccc1 [compound 530, (S)-N*1*-[7-(2-Fluoro-phenylethynyl)-2-pyridin-4-yl-thieno[3,2-d]pyrimidin-4-yl]-3-phenyl-propane-1,2-diamine]	6.00 to 7.00

Next, values leading:

pIC50	Structure (SMILES)
6.00 to 7.00	Cc1sc2c(N[C@@H]3CCNC3)nc(-c3ccncc3)nc2c1C#CC(C)(C)O [compound 503, 2-Methyl-4-[6-methyl-2-pyridin-4-yl-4-((R)-pyrrolidin-3-ylamino)-thieno[3,2-d]pyrimidin-7-yl]-but-3-yn-2-ol]
> 7.00	Cc1sc2c(NC[C@@H](N)Cc3ccccc3)nc(-c3ccncc3)nc2c1C#CC(C)(C)O [compound 504, 4-[4-((S)-2-Amino-3-phenyl-propylamino)-6-methyl-2-pyridin-4-yl-thieno[3,2-d]pyrimidin-7-yl]-2-methyl-but-3-yn-2-ol]
> 7.00	N[C@H](CNc1nc(-c2ccncc2F)nc2c(C#CCO)csc12)Cc1ccccc1 [compound 506, 3-[4-((S)-2-Amino-3-phenyl-propylamino)-2-(3-fluoro-pyridin-4-yl)-thieno[3,2-d]pyrimidin-7-yl]-prop-2-yn-1-ol]
6.00 to 7.00	N[C@H](CNc1nc(-c2ccncc2F)nc2c(C#CC3(O)CCC3)csc12)Cc1ccccc1 [compound 507, 1-[4-((S)-2-Amino-3-phenyl-propylamino)-2-(3-fluoro-pyridin-4-yl)-thieno[3,2-d]pyrimidin-7-ylethynyl]-cyclobutanol]
> 7.00	CC(C)(O)C#Cc1csc2c(NC[C@@H](N)Cc3ccccc3)nc(-c3ccncc3)nc12 [compound 510, 4-[4-((S)-2-Amino-3-phenyl-propylamino)-2-pyridin-4-yl-thieno[3,2-d]pyrimidin-7-yl]-2-methyl-but-3-yn-2-ol]
> 7.00	N[C@H](CNc1nc(-c2ccncc2)nc2c(C#CC3CC3)csc12)Cc1ccccc1 [compound 512, (S)-N*1*-(7-Cyclopropylethynyl-2-pyridin-4-yl-thieno[3,2-d]pyrimidin-4-yl)-3-phenyl-propane-1,2-diamine]
> 7.00	CC(O)C#Cc1csc2c(NC[C@@H](N)Cc3ccccc3)nc(-c3ccncc3)nc12 (stereo partly drawn) [compound 513, 4-[4-((S)-2-Amino-3-phenyl-propylamino)-2-pyridin-4-yl-thieno[3,2-d]pyrimidin-7-yl]-but-3-yn-2-ol]
> 7.00	N[C@H](CNc1nc(-c2ccncc2)nc2c(C#CCO)csc12)Cc1ccccc1 [compound 515, 3-[4-((S)-2-Amino-3-phenyl-propylamino)-2-pyridin-4-yl-thieno[3,2-d]pyrimidin-7-yl]-prop-2-yn-1-ol]
> 7.00	C[C@H](O)C#Cc1csc2c(N[C@@H]3CCNC3)nc(-c3ccncc3)nc12 [compound 517, (S)-4-[2-Pyridin-4-yl-4-((R)-pyrrolidin-3-ylamino)-thieno[3,2-d]pyrimidin-7-yl]-but-3-yn-2-ol]
> 7.00	CC[C@H](O)C#Cc1csc2c(NC[C@@H](N)Cc3ccccc3)nc(-c3ccncc3)nc12 [compound 521]
> 7.00	N[C@H](CNc1nc(-c2ccncc2)nc2c(C#CC3(O)CCCC3)csc12)Cc1ccccc1 [compound 528]
> 7.00	N[C@H](CNc1nc(-c2ccncc2)nc2c(C#CCCO)csc12)Cc1ccccc1 [compound 531, 4-[4-((S)-2-Amino-3-phenyl-propylamino)-2-pyridin-4-yl-thieno[3,2-d]pyrimidin-7-yl]-but-3-yn-1-ol]
> 7.00	N[C@H](CNc1nc(-c2ccncc2)nc2c(C#CC3(O)CC3)csc12)Cc1ccccc1 [compound 532, 1-[4-((S)-2-Amino-3-phenyl-propylamino)-2-pyridin-4-yl-thieno[3,2-d]pyrimidin-7-ylethynyl]-cyclopropanol]
> 7.00	C[C@H](O)C#Cc1csc2c(NC[C@@H](N)Cc3ccccc3)nc(-c3ccncc3)nc12 [compound 533, (S)-4-[4-((S)-2-Amino-3-phenyl-propylamino)-2-pyridin-4-yl-thieno[3,2-d]pyrimidin-7-yl]-but-3-yn-2-ol]
> 7.00	C[C@@H](O)C#Cc1csc2c(NC[C@@H](N)Cc3ccccc3)nc(-c3ccncc3)nc12 [compound 534, (R)-4-[4-((S)-2-Amino-3-phenyl-propylamino)-2-pyridin-4-yl-thieno[3,2-d]pyrimidin-7-yl]-but-3-yn-2-ol]
